Drawing on patent publication US6380218B1, “Nicotinamide derivatives” (Pfizer Inc, priority 1997, dated 2002), this text covers melting point for 44 compounds.

The structures appear in SMILES notation. Counter-ions that a name gives are not always drawn.

Compound `CC(C)(O)c1ccc(CNC(=O)c2cccnc2Oc2ccc(F)cc2)cc1` came in with a melting point of 106 to 108 °C.
Next, `O=C(NCc1ccccc1Cl)c1cccnc1Oc1cccnc1` (as salt: HCl) [Example 31, N-(2-Chloro-benzyl)-2-(pyridin-3-yloxy)-nicotinamide]: 174 to 176 °C.
Compound `C[C@H](NC(=O)c1cccnc1Oc1cccnc1)c1cccs1` (as salt: HCl) [Example 46, (S)(+)-2-(Pyridin-3-yloxy)-N-(1-thiophen-2-yl-ethyl)-nicotinamide] yielded a melting point of 196 to 198 °C.
The figure for `C[C@@H](NC(=O)c1cccnc1Oc1cccnc1)c1cccs1` (as salt: HCl) [Example 47, (R)(−)-2-(Pyridin-3-yloxy)-N-(1-thiophen-2-yl-ethyl)-nicotinamide] is 197 to 199 °C; for `CN(C)c1cccc(Oc2ncccc2C(=O)NCc2ccccc2Cl)c1` (as salt: HCl) [Example 118, N-(2-Chloro-benzyl)-2-(3-dimethylamino-phenoxy)-nicotinamide] it is 85 to 87 °C.
The figure for `CC(NC(=O)c1cccnc1Oc1ccc(F)cc1)c1ccc(Cl)s1` (single isomer, unassigned; (+)) [Example 141, (+)-N-[1-(5-Chloro-thiophen-2-yl)-ethyl]-2-(4-fluoro-phenoxy)-nicotinamide] is 78 to 80 °C; for `CC(O)c1ccc(CNC(=O)c2cccnc2Oc2cccnc2)s1` (single isomer, unassigned; (+)) [Example 205, (+)-N-[5-(1-Hydroxy-ethyl)-thiophen-2-ylmethyl]-2-(pyridin-3-yloxy)-nicotinamide] it is 88 to 90 °C; for `CC(O)C1CCC(CNC(=O)c2cccnc2Oc2ccc(F)c(C#N)c2)CC1` (single isomer, unassigned; (-)) [Example 320, (−)-2-(3-Cyano-4-fluoro-phenoxy)-N-[4-(1-hydroxy-ethyl)-cyclohexylmethyl]-nicotinamide] it is 134 to 135 °C.
Next, `O=C(NCc1cccs1)c1cccnc1Oc1ccc(F)cc1` [Example 1, 2-(4-Fluoro-phenoxy)-N-thiophen-2-ylmethyl-nicotinamide]: 89 to 91 °C; `O=C(NCc1ccco1)c1cccnc1Oc1ccc(F)cc1` [Example 2, 2-(4-Fluoro-phenoxy)-N-furan-2-ylmethyl-nicotinamide]: 71 to 73 °C; `O=C(NCc1c(F)cccc1Cl)c1cccnc1Oc1ccc(F)cc1` [Example 5, N-(2-Chloro-6-fluoro-benzyl)-2-(4-fluoro-phenoxy)-nicotinamide]: 115 to 118 °C.
`C[C@H](NC(=O)c1cccnc1Oc1ccc(F)cc1)c1cccs1` [Example 6, (S)(−)2-(4-Fluoro-phenoxy)-N-(1-thiophen-2-yl-ethyl)-nicotinamide] had a melting point of 59 to 61 °C.
The figure for `C[C@@H](NC(=O)c1cccnc1Oc1ccc(F)cc1)c1cccs1` [Example 7, (R)(+)2-(4-Fluoro-phenoxy)-N-(1-thiophen-2-yl-ethyl)-nicotinamide] is 60 to 62 °C; for `CC(NC(=O)c1cccnc1Oc1ccc(F)cc1)c1ccc(Cl)s1` (centres unmarked) [Example 8, N-[1-(5-Chloro-thiophen-2-yl)-ethyl]-2-(4-fluoro-phenoxy)-nicotinamide] it is 87 to 89 °C.
Next, `O=C(NCc1ccccc1Cl)c1cccnc1Oc1ccc(F)cc1` [Example 9, N-(2-Chloro-benzyl)-2-(4-fluoro-phenoxy)-nicotinamide]: 118 to 120 °C; `O=C(NCc1ccccc1Cl)c1cccnc1Oc1ccc(F)cc1F` [Example 10, N-(2-Chloro-benzyl)-2-(2,4-difluoro-phenoxy)-nicotinamide]: 122 to 124 °C.
As for `O=C(NCc1ccccc1Cl)c1cccnc1Oc1cccc(F)c1` [Example 11, N-(2-Chloro-benzyl)-2-(3-fluoro-phenoxy)-nicotinamide], the melting point was 115 to 117 °C.
Turning to `O=C(NCc1ccccc1Cl)c1cccnc1Oc1cccnc1` [Example 12, N-(2-Chloro-benzyl)-2-(pyridin-3-yloxy)-nicotinamide], the melting point lay in the range of 123 to 125 °C.
The figure for `Cc1ccc(CNC(=O)c2cccnc2Oc2cccnc2)cc1` [Example 13, N-(4-Methyl-benzyl)-2-(pyridin-3-yloxy)-nicotinamide] is 91 to 93 °C.
Next, `CC(NC(=O)c1cccnc1Oc1cccnc1)c1ccc(Cl)s1` (centres unmarked) [Example 14, N-[1-(5-Chloro-thiophen-2-yl)-ethyl]-2-(pyridin-3-yloxy)-nicotinamide]: 74 to 76 °C.
Regarding `O=C(NCc1ccco1)c1cccnc1Oc1cccnc1` [Example 15, N-Furan-2-ylmethyl-2-(pyridin-3-yloxy)-nicotinamide], the melting point was in the range of 84 to 86 °C.
`O=C(NCc1ccc(Cl)s1)c1cccnc1Oc1cccnc1` [Example 16, N-(5-Chloro-thiophen-2-ylmethyl)-2-(pyridin-3-yloxy)-nicotinamide] gave a melting point of 110 to 112 °C.
The figure for `Cc1ccc(C(C)NC(=O)c2cccnc2Oc2cccnc2)s1` (centres unmarked) [Example 17, N-[1-(5-Methyl-thiophen-2-yl)-ethyl]-2-(pyridin-3-yloxy)-nicotinamide] is 162 to 164 °C; for `Cc1ccc(CNC(=O)c2cccnc2Oc2cccnc2)s1` [Example 18, N-(5-Methyl-thiophen-2-ylmethyl)-2-(pyridin-3-yloxy)-nicotinamide] it is 111 to 113 °C; for `Cc1ccc(CNC(=O)c2cccnc2Oc2cccnc2)o1` [Example 19, N-(5-Methyl-furan-2-ylmethyl)-2-(pyridin-3-yloxy)-nicotinamide] it is 65 to 67 °C.
The figure for `Cc1ccsc1CNC(=O)c1cccnc1Oc1cccnc1` [Example 20, N-(3-Methyl-thiophen-2-ylmethyl)-2-(pyridin-3-yloxy)-nicotinamide] is 89 to 91 °C.
The figure for `O=C(NCc1cc(Cl)cs1)c1cccnc1Oc1cccnc1` [Example 21, N-(4-Chloro-thiophen-2-ylmethyl)-2-(pyridin-3-yloxy)-nicotinamide] is 118 to 120 °C.
In turn, `O=C(NCc1cc2ccccc2s1)c1cccnc1Oc1cccnc1` [Example 22, N-Benzo[b]thiophen-2-ylmethyl-2-(pyridin-3-yloxy)-nicotinamide] yielded a melting point of 93 to 95 °C.
Next, `O=C(NCc1ccc(Cl)o1)c1cccnc1Oc1cccnc1` [Example 23, N-(5-Chloro-furan-2-ylmethyl)-2-(pyridin-3-yloxy)-nicotinamide]: 80 to 82 °C; `O=C(NCc1nccs1)c1cccnc1Oc1cccnc1` [Example 24, 2-(Pyridin-3-yloxy)-N-thiazol-2-ylmethyl-nicotinamide]: 94 to 96 °C.
The figure for `O=C(NCc1ccc(OCC(F)(F)F)cc1)c1cccnc1Oc1cccnc1` [Example 25, 2-(Pyridin-3-yloxy)-N-[4-(2,2,2-trifluoro-ethoxy)-benzyl]-nicotinamide] is 98 to 100 °C; for `O=C(NCc1ccccc1F)c1cccnc1Oc1cccnc1` [Example 26, N-(2-Fluoro-benzyl)-2-(pyridin-3-yloxy)-nicotinamide] it is 90 to 92 °C; for `O=C(NCc1ccc(OC(F)F)cc1)c1cccnc1Oc1cccnc1` [Example 27, N-(4-Difluoromethoxy-benzyl)-2-(pyridin-3-yloxy)-nicotinamide] it is 91 to 93 °C.
The figure for `O=C(NCc1ccc(F)cc1)c1cccnc1Oc1cccnc1` [Example 28, N-(4-Fluoro-benzyl]-2-(pyridin-3-yloxy)-nicotinamide] is 129 to 131 °C; for `COc1ccc(CNC(=O)c2cccnc2Oc2cccnc2)cc1` [Example 29, N-(4-Methoxy-benzyl)-2-(pyridin-3-yloxy)-nicotinamide] it is 62 to 64 °C; for `O=C(NCc1ccc(C(F)(F)F)s1)c1cccnc1Oc1cccnc1` [Example 30, 2-(Pyridin-3-yloxy)-N-(5-trifluoromethyl-thiophen-2-ylmethyl)-nicotinamide] it is 122 to 124 °C.
In the case of `O=C(NCc1ccc(F)s1)c1cccnc1Oc1cccnc1` [Example 32, N-(5-Fluoro-thiophen-2-ylmethyl)-2-(pyridin-3-yloxy)-nicotinamide], the melting point is 99 to 101 °C.
Next, `O=C1Cc2cc(CNC(=O)c3cccnc3Oc3cccnc3)ccc2N1` [Example 33, N-(2-Oxo-2,3-dihydro-1H-indol-5-ylmethyl)-2-(pyridin-3-yloxy)-nicotinamide]: 109 to 111 °C; `CC(C)(C)c1cc(CNC(=O)c2cccnc2Oc2cccnc2)cc(C(C)(C)C)c1O` [Example 34, N-(3,5-Di-tert-butyl-4-hydroxy-benzyl)-2-(pyridin-3-yloxy)-nicotinamide]: 42 to 44 °C.
`CC(C)(O)c1ccc(CNC(=O)c2cccnc2Oc2cccnc2)cc1` [Example 36, N-[4-(1-Hydroxy-1-methyl-ethyl)-benzyl]-2-(pyridin-3-yloxy)-nicotinamide] had a melting point of 79 to 81 °C.
Next, `COC(=O)c1ccc(CNC(=O)c2cccnc2Oc2cccnc2)cc1` [Example 37, 4-({[2-(Pyridin-3-yloxy)-pyridine-3-carbonyl]-amino}-methyl)-benzoicacid methyl ester]: 125 to 127 °C; `CC(C)(O)c1ccc(CNC(=O)c2cccnc2Oc2cccnc2)cc1Cl` [Example 38, N-[3-Chloro-4-(1-hydroxy-1-methyl-ethyl)-benzyl]-2-(pyridin-3-yloxy)-nicotinamide]: 139 to 141 °C; `O=C(NCc1ccc2c(c1)OCCC2O)c1cccnc1Oc1cccnc1` (centres unmarked) [Example 41, N-(4-Hydroxy-chroman-7-ylmethyl)-2-(pyridin-3-yloxy)-nicotinamide]: 134 to 136 °C.
Next, `O=C(NCc1ccc(C2(O)CCC2)cc1)c1cccnc1Oc1cccnc1` [Example 42, N-[4-(1-Hydroxy-cyclobutyl)-benzyl]-2-(pyridin-3-yloxy)-nicotinamide]: 116 to 118 °C.

What is called melting point is the temperature of the solid-liquid transition.
